Source: patent US9932376B2, “Analogues of temporin-SHa and uses thereof” (UNIVERSITE PIERRE ET MARIE CURIE (PARIS 6), priority 2013, dated 2018)
“Also recorded” adds a separate entry of the source. Ends that are not written are not given here.

What was measured:
yeasts = test: Tests of antifungal activity (growth inhibition in YPD broth medium, MIC); format: cell-based
Description: Three yeast strains were used: Saccharomyces cerevisiae, Candida albicans (ATCC 90028), Candida parapsilosis (ATCC 22019). These strains were first grown on YPD agar for a minimum of 48 hrs. Yeast suspensions were then prepared, exactly as for bacteria, and adjusted to 10^6 cfu/mL in YPD broth medium.
The antifungal activity test corresponds to the growth inhibition test in broth medium used for the bacteria (see above) in which MH medium was replaced by YPD medium. Fungal strains were incubated at 30° C.

[1] = tested on: Gram-positive and Gram-negative bacterial strains; format: cell-based
Text: The following strains were used for the antibacterial activity tests: Escherichia coli (ATCC 25922 and ML-35p), Staphylococcus aureus (ATCC 25923 and ST1065), Enterococcus faecalis (ATCC 29212), Pseudomonas aeruginosa (ATCC 27853), Streptococcus pyogenes (ATCC 19615), Listeria ivanovii, Salmonella enterica (serotype Enteritidis), Acinetobacter baumannii (ATCC 19606) and Klebsiella pneumoniae (ATCC 13883). Two antibiotic-resistant strains were also used (S. aureus ATCC 43300 and ATCC BAA-44).
For each strain, a standard inoculum of approximately 10^6 bacteria/mL (exponential growth phase) was prepared. To this end, a colony isolated on LB agar previously inoculated with one of the strains was cultured in 4 mL of LB broth medium, except for S. pyogenes and L. ivanovii, which were grown in BHI (Brain Heart Infusion) from a colony isolated on BHI agar. Liquid cultures were then incubated for 2 to 3 hrs at 37° C. with shaking for the bacteria to reach exponential growth phase. […]
The minimum inhibitory concentration (MIC) of each peptide was determined by a test of growth inhibition in broth medium. […] Bacterial growth was determined by measuring OD at 630 nm (turbidity) on a plate reader. […]

rat erythrocytes = test: Hemolytic test; format: cell-based; settings: for hemolytic activity (in words): rat erythrocytes, result in words
Description: (§1) The hemolytic activity of the antimicrobial peptides was assessed using rat erythrocytes. Red blood cell hemolysis is manifested by the release into the reaction medium of hemoglobin, the concentration of which is determined spectrophotometrically at 450 nm.
(§2) Red blood cells were separated from plasma and white blood cells by centrifugation of blood (900×g, 10 min). The pellet containing red blood cells was washed three times with PBS buffer, pH 7.4. After counting on a Malassez cell, a stock solution of 4×10^8 red blood cells/mL was prepared in the same buffer. A series of concentrations of the peptides to be tested was prepared (2 to 400 μM).
(§3) The test was carried out as follows: 50 μL of the different peptide concentrations were added to 50 μL of the red blood cell suspension. After 1 hr of incubation at 37° C. followed by centrifugation (12,000×g, 15 sec), absorbance of the supernatant was measured at 450 nm. The negative control for this test (0% hemolysis) contained […] in place of the peptide solution. The positive control (100% hemolysis) contained 50 μL of 0.1% Triton X-100 in place of the peptide solution.
(§4) The LC50 value obtained is the mean of three experiments carried out in triplicate and corresponds to the peptide concentration inducing hemolysis of 50% of the cells.

Hemolytic test = format: cell-based, rat; settings: rat erythrocytes (washed red blood cells), pH 7.4, rat erythrocytes, 1 hr at 37° C.; for CC50 at 1 hr: read-out: LC50 (hemolytic activity), unit inferred
Description: as §1, §2, §3, §4

[2] = tested on: Leishmania infantum promastigotes (strain MHOM/MA/67/ITMAP-263); test: Tests of anti-leishmanial activity on promastigotes expressing the luciferase; format: cell-based; settings: result in words
Description: Leishmanicidal activity of peptides was evaluated on the promastigote form of Leishmania infantum (strain MHOM/MA/67/ITMAP-263), responsible for visceral leishmaniosis.
Promastigotes were maintained at 26° C. by one or two weekly passages, depending on the number of parasites in the inoculum, in SDM 79 medium supplemented with 10 to 20% decomplemented fetal calf serum and […] porcine hemin and in the presence of 100 U/mL penicillin and 100 μg/mL streptomycin (Brun et al., 1979). Starting from an inoculum of 10^5 cells/mL in logarithmic growth phase, the promastigotes reached a cell density of 1 to 2×10^8 parasites/mL in stationary phase after 5 days of culture in 25 cm^2 culture flasks. Cell densities were determined by flow cytometry in the presence of propidium iodide on a FAC Scan cytometer (Excalibur, Becton Dickinson, Ivry, France).
The tests of anti-leishmanial activity were carried out with a parasite line expressing the luciferase. […]
After 72 hrs of incubation at 26° C., 50 μL of Steady-Glo lysis buffer (Promega) were added to each well. […] Emitted luminescence was measured with a luminescence plate reader (Victor, PerkinElmer). […] The percentage growth was calculated according to the following formula: % growth=[(L mean−bgd)peptide×100]/(L mean−bgd)negative control
where L mean: mean luminescence and bgd: background corresponding to the luminescence emitted by the culture medium. […]

[3] = tested on: THP-1 monocyte-derived macrophages; test: Cytotoxicity test on THP-1 human monocytes-derived macrophages; format: cell-based; settings: result in words
Description: The viability of macrophages was ascertained using a trypan blue-based microassay. THP-1 cells from a culture suspension in mid-log phase of growth were plated at a density of 5×10^5 cells/mL in 96-well plates (100 μL/well, i.e., 5×10^4 cells/well) and differentiated as described above. After incubation for 72 hrs at 37° C. with 5% CO2, in the presence of peptide (60 μM to 7.5 μM, final concentrations), adherent macrophages were washed once with prewarmed RPMI 1640 medium and stained for 5 min, with 100 μL of trypan blue 2-fold diluted in RPMI 1640 medium. Wells were then washed twice with 100 μL of RPMI 1640 medium. Living white cells were microscopically counted in three focuses per well using a reticulated ocular.
The viability index (VI) was calculated for each peptide concentration using the following formula: VI=[N meanpeptide×100]/N meannegative control.
where N mean is the mean number of viable parasites. The negative control (100% growth) contained 20 μL of RPMI medium in place of the peptide solution.
The LC50 value, which corresponds to the peptide concentration inducing lysis of 50% of the cells, was determined from the viability indexes. Tests were carried out in sextuplicate for each peptide concentration and at least two independent experiments were performed to determine the LC50 value.

[4] = tested on: Leishmania infantum axenic amastigote; settings: read-out: IC50 against the axenic amastigote form; cited from earlier work
[5] = tested on: Leishmania infantum promastigote; settings: read-out: IC50 against the promastigote form; cited from earlier work

| Substance | hemolytic activity (in words) (rat erythrocytes) | CC50 at 1 hr (Hemolytic test) | other results |
| --- | --- | --- | --- |
| FLKGIVGMLGKLF-NH2 [[K^3]temporin-SHa] | – | – | MIC (yeasts): 3 to 6 µM; MIC ([1]; Gram-positive (including antibiotic-resistant S. aureus strains) and Gram-negative bacterial strains of clinical interest): 3 to 6 µM; antimicrobial activity (in words) ([1]; bacteria and yeasts tested, result in words): more potent |
| FLKGIVGMLGKLW-NH2 [[K^3,W^13]temporin-SHa, F-L-K-G-I-V-G-M-L-G-K-L-W] | lower hemolytic activity; also recorded: lesser haemolytic | – | – |
| FLKGIVGKLGKLL-NH2 [[K^3, K^8,L^13]temporin-SHa, F-L-K-G-I-V-G-K-L-G-K-L-L] | no hemolytic activity | > 500 µM | – |
| FLKGIKGMLGKLF-NH2 [[K^3,K^6]temporin-SHa, F-L-K-G-I-K-G-M-L-G-K-L-F] | no hemolytic activity | > 500 µM | – |
| F-L-K-G-I-K-G-M-L-G-K-L-L (FLKGIKGMLGKLL-NH2) [[K^3, K^6, L^13]temporin-SHa] | – | – | anti-leishmanial activity on L. infantum promastigotes (in words) [2]: approaches the cytotoxicity level of monocytes |
| FLKGIVGMLGKLL-NH2 [[K^3,L^13]temporin-SHa, F-L-K-G-I-V-G-M-L-G-K-L-L] | lower hemolytic activity; also recorded: lesser haemolytic | – | cytotoxicity against the host cell (macrophage) (in words) [3]: reduced cytotoxicity; fold lower hemolytic activity than [K^3]temporin-SHa (rat erythrocytes; relative to [K^3]temporin-SHa): 2 fold |
| KGIVGMLGKLF-NH2 [[K^3]temporin-SHa(3-13)] | devoid of hemolytic activity | – | HC50 at 1 hr (Hemolytic test; read-out: LC50 (hemolytic activity)): 618 µM |
| FLSGIVGMLGKLF [temporin-SHa, F-L-S-G-I-V-G-M-L-G-K-L-F] | – | – | IC50 [4]: 22.8 µM; IC50 [5]: 18.1 µM |
| FLKGIVGKLGKLF-NH2 [[K^3,K^8]temporin-SHa, F-L-K-G-I-V-G-K-L-G-K-L-F] | no hemolytic activity | > 500 µM | – |
